Results reported in patent US20230085307A1, “PYRIDAZINONE COMPOUND AND HERBICIDE” (NISSAN CHEMICAL CORPORATION, priority 2019, published 2023).

How the values were obtained:
Italian ryegrass [1] = test: Test Example 5: herbicidal effect by foliage application, plastic box (Table 20, symbol K); format: in vivo, Italian ryegrass (Lolium multiflorum); conditions: foliage application, 320 g/ha, three weeks after application
Procedure, shortened: (§1)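 Post-emergence foliar test in sterilized diluvial soil. Compound applied as water-diluted emulsion at a predetermined rate to 14-day-old plants; evaluation at three weeks.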

chickweed [2] = test: Test Example 5: herbicidal effect by foliage application, plastic box (Table 20, symbol P); format: in vivo, common chickweed (Stellaria media); conditions: foliage application, 320 g/ha, three weeks after application
Procedure, shortened: as §1

persian speedwell [3] = test: Test Example 4: herbicidal effect by soil treatment (Table 19, symbol R); format: in vivo, Persian speedwell (Veronica persica); conditions: amount of applied herbicide 320 g/ha
Procedure, shortened: (§2)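 Scoring uses the grading scale of an earlier test, three weeks post-application. Treatment consists of spraying a diluted emulsion formulation across the surface of sterilized diluvial soil in which seeds are buried near 1.5 cm deep; boxes are kept in a greenhouse between 25° C. and 30° C.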

persian speedwell [4] = test: Test Example 5: herbicidal effect by foliage application, plastic box (Table 20, symbol R); format: in vivo, Persian speedwell (Veronica persica); conditions: foliage application, 320 g/ha, three weeks after application
Procedure, shortened: as §1

barnyard grass [5] = test: Test Example 5: herbicidal effect by foliage application, plastic box (Table 20, symbol H); format: in vivo, barnyard grass (Echinochloa crus-galli); conditions: foliage application, 320 g/ha, three weeks after application
Procedure, shortened: as §1

Japanese bulrush = test: Test Example 1: herbicidal activity, application before weed generation under submerged conditions (Table 16, symbol B); format: in vivo, Japanese bulrush (Schoenoplectus juncoides); conditions: amount of applied herbicide 320 g/ha
Procedure, shortened: (§3)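 Alluvial soil was flooded to 4 cm depth, weed seeds were sown mixed and 2.5-leaf rice seedlings were transplanted. On sowing day, the compound's emulsion, diluted in water to a set dose, was applied to the water surface. Plants grew at 25–30 °C and were scored 0–5 after three weeks.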

barnyard grass [6] = test: Test Example 4: herbicidal effect by soil treatment (Table 19, symbol H); format: in vivo, barnyard grass (Echinochloa crus-galli); conditions: amount of applied herbicide 320 g/ha
Procedure, shortened: as §2

southern crabgrass [7] = test: Test Example 5: herbicidal effect by foliage application, plastic box (Table 20, symbol F); format: in vivo, southern crabgrass (Digitaria ciliaris); conditions: foliage application, 320 g/ha, three weeks after application
Procedure, shortened: as §1

lambsquarters [8] = test: Test Example 5: herbicidal effect by foliage application, plastic box (Table 20, symbol O); format: in vivo, lambsquarters (Chenopodium album); conditions: foliage application, 320 g/ha, three weeks after application
Procedure, shortened: as §1

barnyard grass [9] = test: Test Example 3: herbicidal effect by foliage application, Wagner pot (Table 18, symbol H); format: in vivo, barnyard grass (Echinochloa crus-galli)
Procedure, shortened: (§4)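 Plants were sown in alluvial soil held under 0.1–0.5 cm standing water and grown 14 days in a greenhouse at 25–30 °C. An emulsifiable formulation, water-diluted to the set dose, was then sprayed onto the foliage, and effects were scored three weeks later using previously defined criteria.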

late watergrass = test: Test Example 1: herbicidal activity, application before weed generation under submerged conditions (Table 16, symbol A); format: in vivo, late watergrass (Echinochloa oryzicola); conditions: amount of applied herbicide 320 g/ha
Procedure, shortened: as §3

green foxtail [10] = test: Test Example 4: herbicidal effect by soil treatment (Table 19, symbol G); format: in vivo, green foxtail (Setaria viridis); conditions: amount of applied herbicide 320 g/ha
Procedure, shortened: as §2

redroot pigweed [11] = test: Test Example 4: herbicidal effect by soil treatment (Table 19, symbol N); format: in vivo, redroot pigweed (Amaranthus retroflexus); conditions: amount of applied herbicide 320 g/ha
Procedure, shortened: as §2

rice flat sedge = test: Test Example 3: herbicidal effect by foliage application, Wagner pot (Table 18, symbol E); format: in vivo, rice flat sedge (Cyperus iria)
Procedure, shortened: as §4

Chinese sprangletop = test: Test Example 3: herbicidal effect by foliage application, Wagner pot (Table 18, symbol D); format: in vivo, chinese sprangletop (Leptochloa chinensis)
Procedure, shortened: as §4

chickweed [12] = test: Test Example 4: herbicidal effect by soil treatment (Table 19, symbol P); format: in vivo, common chickweed (Stellaria media); conditions: amount of applied herbicide 320 g/ha
Procedure, shortened: as §2

oval-leafed pondweed = test: Test Example 1: herbicidal activity, application before weed generation under submerged conditions (Table 16, symbol C); format: in vivo, oval-leafed pondweed (Monochoria vaginalis); conditions: amount of applied herbicide 320 g/ha
Procedure, shortened: as §3

velvetleaf [13] = test: Test Example 4: herbicidal effect by soil treatment (Table 19, symbol M); format: in vivo, velvetleaf (Abutilon theophrasti); conditions: amount of applied herbicide 320 g/ha
Procedure, shortened: as §2

redroot pigweed [14] = test: Test Example 5: herbicidal effect by foliage application, plastic box (Table 20, symbol N); format: in vivo, redroot pigweed (Amaranthus retroflexus); conditions: foliage application, 320 g/ha, three weeks after application
Procedure, shortened: as §1

green foxtail [15] = test: Test Example 5: herbicidal effect by foliage application, plastic box (Table 20, symbol G); format: in vivo, green foxtail (Setaria viridis); conditions: foliage application, 320 g/ha, three weeks after application
Procedure, shortened: as §1

windgrass [16] = test: Test Example 4: herbicidal effect by soil treatment (Table 19, symbol L); format: in vivo, windgrass (Apera spica-venti); conditions: amount of applied herbicide 320 g/ha
Procedure, shortened: as §2

Italian ryegrass [17] = test: Test Example 4: herbicidal effect by soil treatment (Table 19, symbol K); format: in vivo, Italian ryegrass (Lolium multiflorum); conditions: amount of applied herbicide 320 g/ha
Procedure, shortened: as §2

windgrass [18] = test: Test Example 5: herbicidal effect by foliage application, plastic box (Table 20, symbol L); format: in vivo, windgrass (Apera spica-venti); conditions: foliage application, 320 g/ha, three weeks after application
Procedure, shortened: as §1

wild oat [19] = test: Test Example 4: herbicidal effect by soil treatment (Table 19, symbol I); format: in vivo, wild oat (Avena fatua); conditions: amount of applied herbicide 320 g/ha
Procedure, shortened: as §2

velvetleaf [20] = test: Test Example 5: herbicidal effect by foliage application, plastic box (Table 20, symbol M); format: in vivo, velvetleaf (Abutilon theophrasti); conditions: foliage application, 320 g/ha, three weeks after application
Procedure, shortened: as §1

blackgrass [21] = test: Test Example 5: herbicidal effect by foliage application, plastic box (Table 20, symbol J); format: in vivo, blackgrass (Alopecurus myosuroides); conditions: foliage application, 320 g/ha, three weeks after application
Procedure, shortened: as §1

blackgrass [22] = test: Test Example 4: herbicidal effect by soil treatment (Table 19, symbol J); format: in vivo, blackgrass (Alopecurus myosuroides); conditions: amount of applied herbicide 320 g/ha
Procedure, shortened: as §2

wild oat [23] = test: Test Example 5: herbicidal effect by foliage application, plastic box (Table 20, symbol I); format: in vivo, wild oat (Avena fatua); conditions: foliage application, 320 g/ha, three weeks after application
Procedure, shortened: as §1

southern crabgrass [24] = test: Test Example 4: herbicidal effect by soil treatment (Table 19, symbol F); format: in vivo, southern crabgrass (Digitaria ciliaris); conditions: amount of applied herbicide 320 g/ha
Procedure, shortened: as §2

lambsquarters [25] = test: Test Example 4: herbicidal effect by soil treatment (Table 19, symbol O); format: in vivo, lambsquarters (Chenopodium album); conditions: amount of applied herbicide 320 g/ha
Procedure, shortened: as §2

[26] = amount of applied herbicide 320 g/ha

Structure (SMILES) | K: Italian ryegrass, herbicidal effect grade (Italian ryegrass [1]) | P: chickweed, herbicidal effect grade (chickweed [2]) | R: persian speedwell, herbicidal effect grade (persian speedwell [4]) | H: barnyard grass, herbicidal effect grade (barnyard grass [5]) | Herbicidal effect, B: Japanese bulrush (Japanese bulrush) | F: southern crabgrass, herbicidal effect grade (southern crabgrass [7]) | O: lambsquarters, herbicidal effect grade (lambsquarters [8]) | Herbicidal effect, A: late watergrass (late watergrass) | Herbicidal effect, C: oval-leafed pondweed (oval-leafed pondweed) | N: redroot pigweed, herbicidal effect grade (redroot pigweed [14]) | G: green foxtail, herbicidal effect grade (green foxtail [15]) | L: windgrass, herbicidal effect grade (windgrass [18]) | M: velvetleaf, herbicidal effect grade (velvetleaf [20]) | J: blackgrass, herbicidal effect grade (blackgrass [21]) | I: wild oat, herbicidal effect grade (wild oat [23]) | other results
CCCC(=O)Oc1c(CC)nn(C)c(=O)c1-c1c(-c2ccc(F)cc2)sc2ccc(F)cc12 [2-407] | 3 (Herbicidal rate of 40% or more and less than 70%) | 5 (Herbicidal rate of 90% or more (almost completely withered)) | 5 (Herbicidal rate of 90% or more (almost completely withered)) | 3 (Herbicidal rate of 40% or more and less than 70%) | 0 (Herbicidal rate of 5% or less (almost no effect)) | 0 (Herbicidal rate of 5% or less (almost no effect)) | 3 (Herbicidal rate of 40% or more and less than 70%) | 3 (Herbicidal rate of 40% or more and less than 70%) | 0 (Herbicidal rate of 5% or less (almost no effect)) | 5 (Herbicidal rate of 90% or more (almost completely withered)) | 5 (Herbicidal rate of 90% or more (almost completely withered)) | 0 (Herbicidal rate of 5% or less (almost no effect)) | 5 (Herbicidal rate of 90% or more (almost completely withered)) | 0 (Herbicidal rate of 5% or less (almost no effect)) | 0 (Herbicidal rate of 5% or less (almost no effect)) | herbicidal effect, R: persian speedwell (persian speedwell [3]): 0 (Herbicidal rate of 5% or less (almost no effect)); herbicidal effect, H: barnyard grass (barnyard grass [6]): 0 (Herbicidal rate of 5% or less (almost no effect)); herbicidal effect on H: barnyard grass (barnyard grass [9]; [26]): 5 (Herbicidal rate of 90% or more (almost completely withered)); herbicidal effect, G: green foxtail (green foxtail [10]): 1 (Herbicidal rate of 5% or more and less than 20%); herbicidal effect, N: redroot pigweed (redroot pigweed [11]): 3 (Herbicidal rate of 40% or more and less than 70%); herbicidal effect on E: rice flat sedge (rice flat sedge; [26]): 4 (Herbicidal rate of 70% or more and less than 90%); herbicidal effect on D: Chinese sprangletop (Chinese sprangletop; [26]): 4 (Herbicidal rate of 70% or more and less than 90%); herbicidal effect, P: chickweed (chickweed [12]): 1 (Herbicidal rate of 5% or more and less than 20%); herbicidal effect, M: velvetleaf (velvetleaf [13]): 0 (Herbicidal rate of 5% or less (almost no effect)); herbicidal effect, L: windgrass (windgrass [16]): 0 (Herbicidal rate of 5% or less (almost no effect)); herbicidal effect, K: Italian ryegrass (Italian ryegrass [17]): 0 (Herbicidal rate of 5% or less (almost no effect)); herbicidal effect, I: wild oat (wild oat [19]): 0 (Herbicidal rate of 5% or less (almost no effect)); herbicidal effect, J: blackgrass (blackgrass [22]): 0 (Herbicidal rate of 5% or less (almost no effect)); herbicidal effect, F: southern crabgrass (southern crabgrass [24]): 0 (Herbicidal rate of 5% or less (almost no effect)); herbicidal effect, O: lambsquarters (lambsquarters [25]): 1 (Herbicidal rate of 5% or more and less than 20%)
Cc1nn(C)c(=O)c(-c2c(-c3ccc(OC(C)C)cc3)sc3cc(Cl)ccc23)c1O [3-041] | 0 (Herbicidal rate of 5% or less (almost no effect)) | 3 (Herbicidal rate of 40% or more and less than 70%) | 5 (Herbicidal rate of 90% or more (almost completely withered)) | 0 (Herbicidal rate of 5% or less (almost no effect)) | 0 (Herbicidal rate of 5% or less (almost no effect)) | 0 (Herbicidal rate of 5% or less (almost no effect)) | 1 (Herbicidal rate of 5% or more and less than 20%) | 2 (Herbicidal rate of 20% or more and less than 40%) | 0 (Herbicidal rate of 5% or less (almost no effect)) | 2 (Herbicidal rate of 20% or more and less than 40%) | 0 (Herbicidal rate of 5% or less (almost no effect)) | 0 (Herbicidal rate of 5% or less (almost no effect)) | 0 (Herbicidal rate of 5% or less (almost no effect)) | 0 (Herbicidal rate of 5% or less (almost no effect)) | 0 (Herbicidal rate of 5% or less (almost no effect)) | R: persian speedwell, herbicidal effect grade (persian speedwell [3]): 2 (Herbicidal rate of 20% or more and less than 40%); H: barnyard grass, herbicidal effect grade (barnyard grass [6]): 0 (Herbicidal rate of 5% or less (almost no effect)); herbicidal effect on barnyard grass (H) (barnyard grass [9]; 320 g/ha): 2 (Herbicidal rate of 20% or more and less than 40%); G: green foxtail, herbicidal effect grade (green foxtail [10]): 0 (Herbicidal rate of 5% or less (almost no effect)); N: redroot pigweed, herbicidal effect grade (redroot pigweed [11]): 0 (Herbicidal rate of 5% or less (almost no effect)); herbicidal effect on rice flat sedge (E) (rice flat sedge; 320 g/ha): 1 (Herbicidal rate of 5% or more and less than 20%); herbicidal effect on Chinese sprangletop (D) (Chinese sprangletop; 320 g/ha): 0 (Herbicidal rate of 5% or less (almost no effect)); P: chickweed, herbicidal effect grade (chickweed [12]): 1 (Herbicidal rate of 5% or more and less than 20%); M: velvetleaf, herbicidal effect grade (velvetleaf [13]): 0 (Herbicidal rate of 5% or less (almost no effect)); L: windgrass, herbicidal effect grade (windgrass [16]): 0 (Herbicidal rate of 5% or less (almost no effect)); K: Italian ryegrass, herbicidal effect grade (Italian ryegrass [17]): 0 (Herbicidal rate of 5% or less (almost no effect)); I: wild oat, herbicidal effect grade (wild oat [19]): 0 (Herbicidal rate of 5% or less (almost no effect)); J: blackgrass, herbicidal effect grade (blackgrass [22]): 0 (Herbicidal rate of 5% or less (almost no effect)); F: southern crabgrass, herbicidal effect grade (southern crabgrass [24]): 0 (Herbicidal rate of 5% or less (almost no effect)); O: lambsquarters, herbicidal effect grade (lambsquarters [25]): 0 (Herbicidal rate of 5% or less (almost no effect))
